Read-outs that look alike come from different tables or passages of the source.
Columns and labels:
[1] = target: eDHFR-HA-GFP (Escherichia coli, UniProt P0ABQ4)
Protocol: FIG. 6 depicts degradation of eDHFR-HA in cell lysates and degradation of eDHFR fusion proteins in HeLa cells. (A) Degradation of eDHFR in HeLa cells lysates; (B) quantification of panel (A); (C) Global protein stability (GPS) assay. Cells co-express red fluorescent protein (RFP) and DHFR-HA-GFP from a bicistronic construct. Red and green fluorescence was measured by flow cytometry.
Protein degradation in whole cells was also assessed. eDHFR-HA-GFP was co-expressed with Discosoma sp. red fluorescent protein (RFP) in a bicistronic construct under control of a CMV promoter, with DHFR-HA-GFP translation occurring at the internal ribosome binding site. Thus a single mRNA is responsible for the production of both RFP and DHFR-HA-GFP, so that similar ratios of both proteins should be produced in all transfected cells. Changes in the relative intensities of red and green fluorescence are measured by flow cytometry, providing a facile and quantitative measure of the degradation of DHFR-HA-GFP in living cells and real time.
Cells were grown to 90% confluence in Dulbecco's Modified Minimal Essential Medium supplemented with 10% fetal bovine serum, 1×L-glutamine with no antibiotic in a 6 well plate. At this point the cells were serum starved, and then transfected using […] plasmid (expression driven by the cytomegalovirus promoter; gene coding for enhanced green fluorescent protein fused to the C-terminus of E. coli dihydrofolate reductase): 2 μL Transfectin™ (Biorad) per well. 48 hours after transfection, media was once again aspirated, and fresh serum free media was added. Cycloheximide (final concentration 100 μg/mL) was then added to the cells and after 5 minutes, 30 μM inhibitor was added. At each time point (45 minutes), media was aspirated, cells were trypsinized, centrifuged and washed three times with phosphate buffered saline. Cell pellets were flash frozen in dry ice, and then stored indefinitely at −80° C. The cells were thawed on ice, and then resuspended in lysis buffer (150 mM sucrose, 200 mM sodium phosphate, 43 mM MgCl2, pH 7.8, 0.1% triton X-100). Cells were lysed by two freeze/thaw cycles (−80° C. for 5 minutes, then 4° C. for 10 minutes). Lysate concentrations were normalized by dilution with lysis buffer such that they gave the same A595 when diluted into Bradford assay dye (Biorad).

[2] = test system: eDHFR-KRas D12 fusion protein; assay type: cell-based; conditions: NIH3T3 cells, 16 μM
Protocol: FIG. 3 depicts the degradation of eDHFR-KRas D12 fusion protein. MSCV retrovirus was used to insert eDHFR-KRas D12 fusion gene into NIH3T3 cells. These cells were plated in a 48-well plate and treated with 16 μM of either trimethoprim or trimethoprim-Boc3Arg, and then harvested at the times indicated. eDHFR-Ras contained a FLAG tag at the amino terminus and was measured through western blot with anti-FLAG antibody. Tubulin was used as a loading control.

[3] = test system: HeLa cells; assay: Cytotoxicity and apoptosis (trypan blue staining, PARP cleavage); assay type: cell-based; conditions: concentrations up to 135 μM
[4] = target: T1, eDHFR-HA (Escherichia coli, UniProt P0ABQ4); assay: Degradation by purified 20S proteasome / immunoproteasome; assay type: biochemical
T1 construct: (His)6 (N); made in house; host or cells: Escherichia coli (pET28a vector)
Protocol: The protein was pre-inhibited with 1 mM inhibitor by incubation at 30° C. for 20 minutes. This mixture was added to the assay mixture (in 50 mM Hepes, pH 8.0, 250 mM NaCl, 1 mM DTT) such that the final concentration of protein was 90 nM. The concentration of proteasome was 6 nM. The temperature of assay was 37° C. Total assay volume was 55 μL. 15 μL aliquots were extracted at various time points and immediately placed into 6 μL of 5× loading buffer and boiled for 5 minutes. These were stored at −80° C. after flash freezing on dry ice and thawed by boiling for 2 minutes. The data was analyzed by Western blot as described in Example 2.

[5] = target: eDHFR (Escherichia coli, UniProt P0ABQ4); assay type: binding; conditions: data not shown
[6] = target: T2, Escherichia coli dihydrofolate reductase (Escherichia coli, UniProt P0ABQ4); assay: Degradation of pre-inhibited eDHFR in cell lysates (Western blot); assay type: biochemical
T2 construct: (His)6 (N); made in house; host or cells: Escherichia coli (pET28a vector)

COc1cc(Cc2cnc(N)nc2N)cc(OC)c1OCC(=O)NCCCCCCNC(=O)C(CCCNC(=NC(=O)OC(C)(C)C)NC(=O)OC(C)(C)C)NC(=O)OC(C)(C)C (stereo not drawn) [TMP-Boc3Arg, N-(6-(2-(4-((2,4-diaminopyrimidin-5-yl)methyl)-2,6-dimethoxyphenoxy)acetamido)hexyl)-5-(2,3-di-t-butoxycarbonylguanidino)-2-(t-butoxycarbonylamino)pentanamide]
decrease of eDHFR-HA-GFP ([1]; 80 μM, 5 hours, GPS assay, anti-HA and anti-GFP blotting): 40% | Change in GFP:RFP ratio as function of time ([1]; GPS assay, transfected HeLa cells, flow cytometry): time-dependent decrease | Cell permeability ([1]; inferred from whole-cell degradation): cell permeable | Degradation of eDHFR-HA-GFP in whole cells ([1]; whole cell assays): promotes the degradation | Degradation of K-Ras-eDHFR fusion protein [2]: can induce the degradation | Degradation of K-Ras-eDHFR fusion protein ([2]; listed as trimethoprim-tag): is degraded | Cytotoxicity / induction of apoptosis [3]: did not display cytotoxicity or induce apoptosis | Degradation using purified immune proteasome ([4]; 20S immunoproteasome): promotes the degradation | Degradation using purified 20S proteasome ([4]; purified 20S proteasome, no ATP added): promotes the degradation | increase of eDHFR melting point / stability (relative to TMP) [5]: smaller increase | Degradation of target protein (eDHFR fused to GFP) ([6]; FIG. 6, noncovalent ligand): induced the degradation | Degradation of eDHFR in cell lysate assays ([6]; cell lysate): promotes the degradation
